According to the NIST ThermoML archive (doi:10.1016/j.jct.2011.02.018):
Numbers after ± are expanded uncertainties.

Experiment: xn = mol fraction of the nth substance listed
Conditions: 101 kPa, Liquid, Vibrating tube method

COC(C)(C)C [2-methoxy-2-methylpropane] + CO
mass density [kg/m3]
Conditions	293.15 K	298.15 K	303.15 K	308.15 K
x1 = 0.01	790.62 ± 0.23	785.93 ± 0.23	781.19 ± 0.23	776.42 ± 0.23
x1 = 0.0201	789.69 ± 0.23	785 ± 0.23	780.24 ± 0.23	775.46 ± 0.23
x1 = 0.0301	788.74 ± 0.23	784.01 ± 0.23	779.26 ± 0.23	774.46 ± 0.23
x1 = 0.0402	787.83 ± 0.23	783.09 ± 0.23	778.32 ± 0.23	773.51 ± 0.23
x1 = 0.0502	786.96 ± 0.23	782.24 ± 0.23	777.44 ± 0.23	772.61 ± 0.23
x1 = 0.0601	786.1 ± 0.23	781.36 ± 0.23	776.57 ± 0.23	771.73 ± 0.23
x1 = 0.0696	785.32 ± 0.23	780.58 ± 0.23	775.75 ± 0.23	770.9 ± 0.23
x1 = 0.0799	784.47 ± 0.23	779.71 ± 0.23	774.88 ± 0.23	770.02 ± 0.23
x1 = 0.0888	783.72 ± 0.23	778.95 ± 0.23	774.12 ± 0.23	769.25 ± 0.23
x1 = 0.1008	782.79 ± 0.23	778 ± 0.23	773.16 ± 0.23	768.27 ± 0.23
x1 = 0.1498	779.11 ± 0.23	774.25 ± 0.23	769.36 ± 0.23	764.43 ± 0.23
x1 = 0.1945	776.01 ± 0.23	771.13 ± 0.23	766.21 ± 0.23	761.24 ± 0.23
x1 = 0.26	771.99 ± 0.23	767.08 ± 0.23	762.1 ± 0.23	757.08 ± 0.24
x1 = 0.3006	769.58 ± 0.23	764.65 ± 0.23	759.64 ± 0.23	754.59 ± 0.24
x1 = 0.3482	766.92 ± 0.23	761.97 ± 0.23	756.93 ± 0.24	751.87 ± 0.24
x1 = 0.3841	765.07 ± 0.23	760.07 ± 0.23	755.01 ± 0.24	749.92 ± 0.24
x1 = 0.4527	761.67 ± 0.23	756.67 ± 0.24	751.59 ± 0.24	746.45 ± 0.24
x1 = 0.5004	759.46 ± 0.24	754.42 ± 0.24	749.29 ± 0.24	744.12 ± 0.24
x1 = 0.5458	757.52 ± 0.24	752.46 ± 0.24	747.32 ± 0.24	742.12 ± 0.24
x1 = 0.6009	755.29 ± 0.24	750.18 ± 0.24	745.03 ± 0.24	739.81 ± 0.24
x1 = 0.6459	753.48 ± 0.24	748.37 ± 0.24	743.18 ± 0.24	737.93 ± 0.24
x1 = 0.7014	751.36 ± 0.24	746.23 ± 0.24	741.01 ± 0.24	735.74 ± 0.24
x1 = 0.7449	749.75 ± 0.24	744.6 ± 0.24	739.36 ± 0.24	734.07 ± 0.24
x1 = 0.7986	747.76 ± 0.24	742.58 ± 0.24	737.33 ± 0.24	732.01 ± 0.24
x1 = 0.8504	745.92 ± 0.24	740.74 ± 0.24	735.47 ± 0.24	730.13 ± 0.24
x1 = 0.8978	744.27 ± 0.24	739.05 ± 0.24	733.78 ± 0.24	728.43 ± 0.24
x1 = 0.9091	743.88 ± 0.24	738.66 ± 0.24	733.39 ± 0.24	728.04 ± 0.24
x1 = 0.9184	743.53 ± 0.24	738.33 ± 0.24	733.04 ± 0.24	727.69 ± 0.24
x1 = 0.9259	743.26 ± 0.24	738.07 ± 0.24	732.78 ± 0.24	727.43 ± 0.24
x1 = 0.9379	742.81 ± 0.24	737.6 ± 0.24	732.32 ± 0.24	726.97 ± 0.24
x1 = 0.9473	742.48 ± 0.24	737.28 ± 0.24	732 ± 0.24	726.65 ± 0.24
x1 = 0.9598	742.06 ± 0.24	736.83 ± 0.24	731.56 ± 0.24	726.21 ± 0.24
x1 = 0.9706	741.68 ± 0.24	736.46 ± 0.24	731.17 ± 0.24	725.82 ± 0.24
x1 = 0.9791	741.36 ± 0.24	736.13 ± 0.24	730.85 ± 0.24	725.49 ± 0.24
x1 = 0.9881	741.04 ± 0.24	735.82 ± 0.24	730.53 ± 0.24	725.18 ± 0.24
